Data on 1 molecule can be found in patent US20120316203A1, “Compositions and Methods for Inhibition of Cancers” (THE OHIO STATE UNIVERSITY RESEARCH FOUNDATION, priority 2009, published 2012).

For data set [1], the system named is A2780R, SKOV3, OV4, and OVCAR3 cells. Description: Western blot of apoptosis and JAK/STAT3 in four additional ovarian cancer cell lines. The data set is classed as cell-based, human. The settings on record: 10 μmol/L, 24 hours, all four cell lines. The procedure:
Cells in RPMI 1640 were treated with DMSO (control) or HO-3867 (10 μmol/L) for 24 hours. Equal volumes of DMSO (0.1% v/v) were present in each treatment. Following treatment, the cell lysates were prepared in non-denaturing lysis buffer containing 10 mmol/L Tris-HCl (pH 7.4), 150 mmol/L NaCl, 1% Triton X-100, 1 mmol/L EDTA, 1 mmol/L EGTA, 0.3 mmol/L phenylmethyl-sulfonyl fluoride, 0.2 mmol/L sodium orthovanadate, 0.5% NP40, 1 μg/mL aprotinin, and 1 μg/mL leupetin. The lysates were centrifuged at 10,000×g for 20 minutes at 4° C. and the supernatant was separated. The protein concentration in the lysates was determined using a Pierce detergent-compatible protein assay kit. For Western blotting, 25 to 50 μg of protein lysate per sample were denatured in 2×SDS-PAGE sample buffer and subjected to SDS-PAGE on a 10% tris-glycine gel. The separated proteins were transferred to a polyvinylidene fluoride membrane and were blocked with 5% nonfat milk powder (w/v) in TBST (10 mmol/L Tris, 10 mmol/L NaCl, 0.1% Tween 20) for 1 hour at room temperature or overnight at 4° C. […] The bound antibodies were detected with horseradish peroxidase-labeled sheep anti-mouse IgG or horseradish peroxidase-labeled donkey anti-rabbit IgG using an enhanced chemiluminescence detection system (ECL Advanced kit). Protein expressions were determined using the Image Gauge v. […]

The subject of data set [2] is hOSE cells, HSMC, and HAEC. Description: Cytotoxicity of DAPs to noncancerous cells (MTT). The class given is cell-based, human. Here is the method: Cell viability was determined by a colorimetric assay using MTT. In the mitochondria of living cells, yellow MTT undergoes a reductive conversion to formazan, giving a purple color. Cells, grown to […] confluence in 75-mm flasks, were trypsinized, counted, seeded in 96-well plates with an average population of 7000 cells/well, incubated overnight, and then treated with the DAPs (H-4073, HO-3867, H4318, or HO-4200; […]) for 24 h. All experiments were done using eight replicates and repeated at least three times. Cell viability was expressed as the percentage of MIT viability of untreated cells.

For another data set, the system named is A2780 cells. Description: Cell proliferation by clonogenic assay. As to conditions: 24 hours treatment, 7 days growth. The class given is cell-based, human. Here is the method:
Cell survival was assessed by clonogenic assay. Cells at […] confluence were trypsinized, rinsed, seeded onto 60-mm dishes (5×10^4 cells per dish), grown for 24 hours at 37° C., and treated afterward with H-4073 or HO-3867 for 24 hours. Nontreated cells served as controls. After treatment, the cells were washed twice with PBS, trypsinized, counted, and plated in 60-mm dishes in triplicate and incubated for an additional 7 days. The colonies were then stained with crystal violet (in ethyl alcohol) and counted using an automated colony counter (ColCount, Oxford Optronix). Each experiment was repeated at least five times.

The subject of data set [3] is A2780 xenograft tumor tissue. Description: Immunoblot analysis of excised xenograft tumor tissue (JAK/STAT3, targets, apoptosis). The class given is in vivo, BALB/c nude mice. The procedure:
Cells in RPMI 1640 were treated with DMSO (control) or HO-3867 (10 μmol/L) for 24 hours. Equal volumes of DMSO (0.1% v/v) were present in each treatment. Following treatment, the cell lysates were prepared in non-denaturing lysis buffer containing 10 mmol/L Tris-HCl (pH 7.4), 150 mmol/L NaCl, 1% Triton X-100, 1 mmol/L EDTA, 1 mmol/L EGTA, 0.3 mmol/L phenylmethyl-sulfonyl fluoride, 0.2 mmol/L sodium orthovanadate, 0.5% NP40, 1 μg/mL aprotinin, and 1 μg/mL leupetin. The lysates were centrifuged at 10,000×g for 20 minutes at 4° C. and the supernatant was separated. The protein concentration in the lysates was determined using a Pierce detergent-compatible protein assay kit. For Western blotting, 25 to 50 μg of protein lysate per sample were denatured in 2×SDS-PAGE sample buffer and subjected to SDS-PAGE on a 10% tris-glycine gel. The separated proteins were transferred to a polyvinylidene fluoride membrane and were blocked with 5% nonfat milk powder (w/v) in TBST (10 mmol/L Tris, 10 mmol/L NaCl, 0.1% Tween 20) for 1 hour at room temperature or overnight at 4° C. The membranes were then incubated with the primary antibodies. The bound antibodies were detected with horseradish peroxidase-labeled sheep anti-mouse IgG or horseradish peroxidase-labeled donkey anti-rabbit IgG using an enhanced chemiluminescence detection system (ECL Advanced kit). Protein expressions were determined using the Image Gauge v. 3.45 software.
Cultured A2780 cancer cells (2×10^6 cells in […] of PBS) were s.c. injected into the back of 6-week-old BALB/c nude mice from the National Cancer Institute. Five to 7 days later, when the tumors reached 3 to 5 mm in diameter, the mice were divided (n=9/group) in a manner to equalize the mean tumor diameter among the groups. The control group was given a normal diet (no treatment), whereas the experimental groups were treated using the DAP compounds mixed with the animal feed (Harlan Teklad) at three different levels (25, 50, and 100 ppm). The doses were chosen based on an initial dose-response study optimized to produce an observable effect on tumor growth. The size of the tumor was measured twice per week using a digital Vernier caliper. The tumor volume was determined from the orthogonal dimensions (d1, d2, d3) using the formula (d1×d2×d3)×π/6. Thirty five days after the beginning of HO-3867 treatment, the mice were sacrificed and the tumors were resected. The tumor tissues were then subjected to immunoblot analysis.
(Immunoblotting shows a protein as a band on a membrane.)

Data set [4] relates to pSTAT3 (Tyr705 and Ser727), cleaved caspase-3 and PARP in A2780, A549, HepG2, MCF-7, HCT-116 cells. Description: Western blot of STAT3 signaling and apoptotic markers in cancer cells. The class given is cell-based, human. The settings on record: 10 μM, 24 h. The procedure:
Cells were grown in RPMI 1640 medium and treated with DMSO (control) or HO-3867 ([…]). Equal volumes of DMSO (0.1% v/v) were present in both groups. After treatment, cell lysates were prepared in nondenaturing lysis buffer (10 mM Tris-HCl (pH 7.4), 150 mM NaCl, 1% Triton X-100, 1 mM EDTA, 1 mM EGTA, 0.3 mM phenylmethylsulfonyl fluoride, 0.2-mM sodium orthovanadate, 0.5% NP-40, 1 lag/ml aprotinin, and 1 lag/ml leupeptin). Cell lysates were centrifuged at 10,000 RPM for 20 min at 4° C., and the supernatant was separated. The protein concentration in the lysates was determined using a Pierce detergent-compatible protein assay kit. For Western blotting, 25 to 50 lag of protein lysate per sample was denatured in 2× sample buffer and subjected to SDS-PAGE on a 10 or 12% Tris-glycine gel. The separated proteins were transferred to a PVDF membrane and then the membrane was blocked with 5% nonfat milk powder (w/v) in 10 mM Tris, 100 mM NaCl, 0.1% Tween 20 for 1 h at room temperature or overnight at 4° C. The membranes were incubated with the primary antibodies described above. The bound antibodies were detected with horseradish peroxidase (HRP)-labeled sheep anti-mouse IgG or HRP-labeled donkey anti-rabbit IgG (Amersham) using an enhanced chemiluminescence detection system (ECL Advanced Kit). Protein expression was determined using Image Gauge version 3.45.

Structures are written as SMILES.

Consider `CC1(C)C=C(CN2C/C(=C\c3ccc(F)cc3)C(=O)/C(=C/c3ccc(F)cc3)C2)C(C)(C)N1O` [HO-3867, 1-[(1-oxyl-2,2,5,5-tetramethyl-2,5-dihydro-1H-pyrrol-3-yl)methyl]-(3E,5E)-3,5-bis(4-fluorobenzylidene)piperidin-4-one], for which, in data set [1], the “caspase-3 and PARP cleavage” value is “clearly showed caspase-3 and PARP cleavage”; the “expression levels of pSTAT3 and JAK1” value is given as “decrease”. In data set [2] (10 NM, 24-h incubation), the “cell viability of noncancerous (healthy) human cell lines” value is reported as “significantly less toxic”. The “viability of hOSE cells” value in data set [2] (same dose for both compounds) is on record as “very little effect”. For the same molecule, in the data set on A2780 cells, the “number of colonies (colony-forming ability)” value was “dose-dependent reduction in the number of colonies”. Moreover, in data set [3] (mouse, in vivo), the “cleaved caspase-3 and PARP in tumors” value is listed as “significant induction”; the “cyclin D1, VEGF, Bcl-2, and Survivin levels in tumors” value was “clear decrease”; the “pJAK levels in tumor tissues” value is on record as “did not observe any significant change”; the “total JAK levels in tumor tissues” value is given as “clear downregulation”. For the same molecule, the “pSTAT3 Tyr705 and Ser727 levels in tumor tissue” value in data set [3] (without affecting total STAT3) was “decreased expressions”. In data set [4], the “Tyr705 and Ser727 pSTAT3 levels in cancer cells” value was “significantly attenuated”; the “activated caspase-3 and PARP in cancer cells” value is given as “significant elevation”.
